Results: the supplement of paper PMC8967900

Key:
Experiment in all cases: selective drug sensitivity score (sDSS, relative to normal bone marrow) (sDSS (score)); higher = more potent and effective on the cell line relative to normal bone marrow cells
Details in all cases: 72 h
MHH-CALL-2 = system: MHH-CALL-2
MHH-CALL-3 = system: MHH-CALL-3
COG-LL-355h = system: COG-LL-355h
MOLT-16 = system: MOLT-16
JURKAT = system: JURKAT
LC4-1 = system: LC4-1
ALL-SIL = system: ALL-SIL
REH = system: REH
DND-41 = system: DND-41
TMD5 = system: TMD5
P30-OHKUBO = system: P30-OHKUBO
NALM-16 = system: NALM-16
380 = system: 380
HPB-ALL = system: HPB-ALL
COG-LL-319h = system: COG-LL-319h
NALL-1 = system: NALL-1
SUP-B15 = system: SUP-B15
TANOUE = system: TANOUE
KASUMI-2 = system: KASUMI-2
697 = system: 697
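Further: ALL cell lines in 384-well plates, five doses spanning 10,000-fold, each plate scaled between vehicle and 100 µmol/L benzalkonium chloride controls, sDSS an adapted area-under-curve metric.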

Row | SMILES | selective drug sensitivity score (MHH-CALL-2) | selective drug sensitivity score (MHH-CALL-3) | selective drug sensitivity score (COG-LL-355h) | selective drug sensitivity score (MOLT-16) | selective drug sensitivity score (JURKAT) | selective drug sensitivity score (LC4-1) | selective drug sensitivity score (ALL-SIL) | selective drug sensitivity score (REH) | selective drug sensitivity score (DND-41) | selective drug sensitivity score (TMD5) | selective drug sensitivity score (P30-OHKUBO) | selective drug sensitivity score (NALM-16) | selective drug sensitivity score 380 | selective drug sensitivity score (HPB-ALL) | selective drug sensitivity score (COG-LL-319h) | selective drug sensitivity score (NALL-1) | selective drug sensitivity score (SUP-B15) | selective drug sensitivity score (TANOUE) | selective drug sensitivity score (KASUMI-2) | selective drug sensitivity score 697
1 | CCN(CC)CCNC(=O)c1c(C)[nH]c(/C=C2\C(=O)Nc3ccc(F)cc32)c1C [Sunitinib] (top concentration 1000 nM) | 1.86 | -1.44 | 5.66 | -1.44 | -1.44 | -0.84 | 0.76 | -1.44 | -1.44 | 3.26 | 0.76 | -1.04 | -1.44 | -1.44 | -1.34 | -1.44 | 6.86 | -1.44 | -1.44 | 1.16
2 | CC(C)Oc1ccc(-c2nn([C@@H](C)c3oc4ccc(F)cc4c(=O)c3-c3cccc(F)c3)c3ncnc(N)c23)cc1F [TGR-1202] (top concentration 2500 nM) | -0.06 | -2.56 | 5.14 | -2.46 | -2.56 | -1.76 | -0.36 | -1.76 | 2.74 | -2.56 | 5.14 | 2.24 | -2.56 | -2.56 | 1.64 | 1.24 | 1.14 | -2.56 | -2.36 | 0.44
3 | CN(C(=O)c1ccc(F)cc1C(F)(F)F)C1CCN(c2nnc(-c3ccnn3C)c3ccccc23)CC1 [Taladegib] (top concentration 10000 nM) | 3.18 | -0.32 | 1.48 | 3.88 | 2.78 | 4.58 | 0.08 | 3.58 | -1.12 | -1.02 | -0.02 | 0.88 | 4.08 | 7.08 | 5.78 | -1.12 | 3.78 | 4.98 | 11 | 1.88
4 | COc1cc(Nc2ncc(F)c(Nc3ccc4c(n3)NC(=O)C(C)(C)O4)n2)cc(OC)c1OC [Tamatinib] (top concentration 10000 nM) | -4.92 | -5.42 | -1.52 | -5.42 | -5.42 | 1.28 | -5.42 | -2.22 | -1.82 | -5.42 | 4.38 | -1.42 | -5.42 | -5.42 | -0.72 | -3.82 | -0.62 | -5.32 | -5.42 | 1.28
5 | Nc1cc(F)ccc1NC(=O)c1ccc(CNC(=O)/C=C/c2cccnc2)cc1 [Tucidinostat] (top concentration 10000 nM) | 9.14 | 11.4 | 0.64 | 4.54 | 1.34 | 3.94 | 10.4 | 3.34 | 1.04 | 4.14 | 4.04 | -0.36 | 12.5 | 3.44 | 12 | -2.76 | 5.34 | -8.66 | 8.84 | 6.34
6 | CN[C@@H]1C[C@H]2O[C@@](C)([C@@H]1OC)n1c3ccccc3c3c4c(c5c6ccccc6n2c5c31)C(=O)N[C@H]4O [UCN-01] (top concentration 10000 nM) | 7.94 | 6.24 | 4.34 | 8.64 | 0.34 | 1.54 | 3.14 | 5.24 | 7.44 | -0.36 | 7.74 | 0.74 | 13.5 | 6.04 | 6.64 | 0.94 | 2.64 | -9.56 | 2.84 | 12.9
7 | CC(C)Nc1cc(-c2c[nH]c(C(=O)N[C@H](CO)c3cccc(Cl)c3)c2)c(Cl)cn1 [Ulixertinib] (top concentration 10000 nM) | 2.72 | -4.38 | 3.82 | 2.42 | -1.08 | 0.32 | 3.02 | -1.08 | 4.72 | 2.12 | -0.18 | 3.22 | -4.38 | -2.68 | -0.78 | 3.92 | 6.62 | -4.38 | 7.82 | 1.62
8 | Cn1ncc(Cl)c1-c1cc(C(=O)N[C@H](CN)Cc2ccc(F)c(F)c2)oc1Cl [Uprosertib] (top concentration 10000 nM) | 2.1 | -1.4 | 6.8 | 19.1 | 5.9 | -1.2 | 1.5 | 9.6 | -1.3 | 1.2 | 6.5 | 5.4 | 0.6 | -1.4 | 5.3 | -1.4 | -1.4 | -1.2 | 8.3 | 0.3
9 | C=CC(=O)N1CC/C(=C\c2ccc(F)c([N+](=O)[O-])c2)C(=O)/C(=C/c2ccc(F)c([N+](=O)[O-])c2)C1 [VLX1570] (top concentration 10000 nM) | -3.32 | 5.98 | 6.08 | -1.32 | -8.52 | 0.68 | -3.62 | 1.98 | 1.18 | -2.62 | 1.88 | -3.72 | 6.88 | -1.22 | 2.08 | -4.52 | 1.38 | -6.32 | -2.62 | -1.02
10 | C[C@@H]1COC(Nc2ccc3ncnc(Nc4ccc(OCc5nccs5)c(Cl)c4)c3c2)=N1 [Varlitinib] (top concentration 10000 nM) | 5.02 | -0.18 | 0.92 | -0.18 | -0.18 | 20.2 | 2.92 | 7.62 | -0.18 | 3.02 | 4.32 | 0.92 | 18.5 | 1.92 | 18.8 | -0.18 | 6.82 | -0.18 | -0.18 | 3.82
11 | CNC(=O)c1cccc(-c2ccc3c(N4CCOC[C@@H]4C)nc(N4CCOC[C@@H]4C)nc3n2)c1 [Vistusertib] (top concentration 10000 nM) | 9.52 | 2.12 | 6.12 | 5.62 | 2.22 | 5.12 | 8.52 | 9.32 | 9.02 | 3.02 | 11.7 | 2.22 | 17.1 | 1.12 | 10.6 | -3.58 | 10.7 | -2.78 | 15 | 15.1
